Consider seven compounds from US6503935B1, “Imidazoles and related compounds as α1A agonists” (Abbott Laboratories, priority 1998, dated 2003).

For data set [1], the target named is T1, α1A (rat submaxillary gland) (Rattus norvegicus, UniProt P43140).
T1 construct: α1A (rat submaxillary gland); from tissue; host or cells: rat submaxillary gland
T1 sequence (P43140 1-466): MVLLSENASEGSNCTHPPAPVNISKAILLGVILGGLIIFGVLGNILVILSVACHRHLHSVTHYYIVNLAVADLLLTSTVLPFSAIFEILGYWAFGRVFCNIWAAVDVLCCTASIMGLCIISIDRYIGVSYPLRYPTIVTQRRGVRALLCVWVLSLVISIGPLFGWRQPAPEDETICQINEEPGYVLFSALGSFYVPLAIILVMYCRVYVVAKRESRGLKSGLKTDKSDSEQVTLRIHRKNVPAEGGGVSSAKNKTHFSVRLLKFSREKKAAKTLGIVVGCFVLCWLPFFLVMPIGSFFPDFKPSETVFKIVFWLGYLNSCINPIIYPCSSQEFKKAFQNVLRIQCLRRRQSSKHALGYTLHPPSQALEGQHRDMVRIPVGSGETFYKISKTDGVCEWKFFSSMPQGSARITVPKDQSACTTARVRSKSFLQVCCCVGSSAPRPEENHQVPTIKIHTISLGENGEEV
Kind of data set: Radioligand binding with [3H]-prazosin, α1A. A digest of the protocol:
(§1)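 Radioligand binding with [3H]-prazosin: α1A from rat submaxillary gland; α1b hamster receptor and α1d rat receptor, each expressed in mouse fibroblasts.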

The target of data set [2] is T2, α1b (hamster receptor expressed in mouse fibroblasts) (Mesocricetus auratus, UniProt P18841).
T2 construct: expressed in transfected cells; host or cells: mouse fibroblasts
T2 sequence (P18841 1-515): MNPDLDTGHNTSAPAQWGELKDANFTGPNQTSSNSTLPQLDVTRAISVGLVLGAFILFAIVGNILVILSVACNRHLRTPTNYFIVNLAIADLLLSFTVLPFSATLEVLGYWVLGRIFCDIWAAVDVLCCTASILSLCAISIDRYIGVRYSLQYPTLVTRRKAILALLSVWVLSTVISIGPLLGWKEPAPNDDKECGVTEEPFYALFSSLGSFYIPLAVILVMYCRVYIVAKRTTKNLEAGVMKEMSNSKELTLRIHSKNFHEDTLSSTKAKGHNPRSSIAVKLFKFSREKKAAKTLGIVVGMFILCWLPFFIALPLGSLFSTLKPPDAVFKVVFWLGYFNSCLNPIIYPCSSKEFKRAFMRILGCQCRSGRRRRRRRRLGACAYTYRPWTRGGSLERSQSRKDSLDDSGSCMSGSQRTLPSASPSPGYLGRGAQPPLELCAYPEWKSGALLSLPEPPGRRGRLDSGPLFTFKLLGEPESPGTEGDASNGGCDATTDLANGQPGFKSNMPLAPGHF
Kind of data set: Radioligand binding with [3H]-prazosin, α1b. The note with it: read-out: Radioligand Binding Ki α1b (Hamster). Summed up:
as §1

Data set [3] addresses T3, α1d (rat receptor expressed in mouse fibroblasts) (Rattus norvegicus, UniProt P23944).
T3 construct: expressed in transfected cells; host or cells: mouse fibroblasts
T3 sequence (P23944 1-561): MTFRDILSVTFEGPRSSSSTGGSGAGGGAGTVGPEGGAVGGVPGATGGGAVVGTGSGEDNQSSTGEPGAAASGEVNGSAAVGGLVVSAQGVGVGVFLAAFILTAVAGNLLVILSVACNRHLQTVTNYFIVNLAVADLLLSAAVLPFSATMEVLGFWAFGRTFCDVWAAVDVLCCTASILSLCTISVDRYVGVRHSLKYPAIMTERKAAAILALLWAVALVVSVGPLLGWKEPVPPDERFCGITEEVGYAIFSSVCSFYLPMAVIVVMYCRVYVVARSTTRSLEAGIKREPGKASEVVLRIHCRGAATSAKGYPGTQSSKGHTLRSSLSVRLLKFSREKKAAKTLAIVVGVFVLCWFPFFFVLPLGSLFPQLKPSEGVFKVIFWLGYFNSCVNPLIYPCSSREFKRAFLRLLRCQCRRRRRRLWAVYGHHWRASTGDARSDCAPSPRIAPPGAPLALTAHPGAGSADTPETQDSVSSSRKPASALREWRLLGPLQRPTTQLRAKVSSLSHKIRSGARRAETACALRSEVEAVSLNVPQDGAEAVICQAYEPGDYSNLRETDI
Kind of data set: Radioligand binding with [3H]-prazosin, α1d. As to conditions: read-out: Radioligand Binding Ki α1d (Rat). A digest of the protocol: as §1

The target in data set [4] is T4, α1A (rat epididymal vas deferens) (Rattus norvegicus, UniProt P43140).
T4 sequence (P43140 1-466): T1 sequence (P43140 1-466)
Nature of the data set: cell-based. As to conditions: rat epididymal vas deferens (values marked *); read-out: Agonist Tissue Response (pD2) α1A, test performed using rat epididymal vas deferens (converted).

For another data set, the target named is T5, α1B (rat spleen) (Rattus norvegicus, UniProt P15823).
T5 construct: α1B (rat spleen) and α1D (rat aorta) receptors; from tissue; host or cells: rat spleen
T5 sequence (P15823 1-515): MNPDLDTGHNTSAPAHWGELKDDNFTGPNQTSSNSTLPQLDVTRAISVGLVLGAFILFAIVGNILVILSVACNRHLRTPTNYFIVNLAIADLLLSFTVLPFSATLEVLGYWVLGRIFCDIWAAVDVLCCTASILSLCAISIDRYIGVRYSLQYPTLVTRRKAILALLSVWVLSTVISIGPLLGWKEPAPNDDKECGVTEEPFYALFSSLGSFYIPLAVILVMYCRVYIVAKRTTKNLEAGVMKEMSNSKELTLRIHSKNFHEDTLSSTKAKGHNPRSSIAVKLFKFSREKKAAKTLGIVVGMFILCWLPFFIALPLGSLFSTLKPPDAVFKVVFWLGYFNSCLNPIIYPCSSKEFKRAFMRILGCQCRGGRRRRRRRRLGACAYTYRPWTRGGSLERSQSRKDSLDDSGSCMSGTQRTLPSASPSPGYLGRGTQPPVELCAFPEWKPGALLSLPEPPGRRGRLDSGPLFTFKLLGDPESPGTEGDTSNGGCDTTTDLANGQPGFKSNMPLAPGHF
Kind of data set: Agonist contraction of smooth muscle tissue, rat spleen. It is filed as cell-based. As to conditions: read-out: Agonist Tissue Response (pD2) α1B (rat spleen) (converted).

Another data set concerns the target T6, α1D (rat aorta) (Rattus norvegicus, UniProt P23944).
T6 construct: α1B (rat spleen) and α1D (rat aorta) receptors; from tissue; host or cells: rat aorta strips, endothelium removed
T6 sequence (P23944 1-561): T3 sequence (P23944 1-561)
Kind of data set: Agonist contraction of smooth muscle tissue, rat aorta. It is filed as cell-based. As to conditions: read-out: Agonist Tissue Response (pD2) α1D (rat aorta) (converted).

The test system of data set [5] is Anesthetized Dogs. Nature of the data set: Mean arterial pressure (MAP) in anesthetized dogs. It is filed as in vivo, dog. As to conditions: iv dose causing a maximum increase in MAP of 20 mm Hg, anesthetized female dogs. The text has this:
In vivo Functional Assays-Assessment of Intrurethral Pressure (IUP) and Mean Arterial Pressure (MAP) in Anesthetized Dogs
Female dogs (Marshall Farms, North Rose, N.Y.) greater that 2 years of age and weighing between 12 and 15 kg were used in these studies. At least 2 weeks prior to any agonist dosing, dogs were instrumented for the chronic measurement of arterial blood pressure by implanting a telemetry transducer/transmitter (TA11PA-C40, Data Sciences International, St. Paul, Minn.) into a carotid artery.
On the test day, dogs fasted since the previous afternoon were pre-anesthetized with thiopental sodium 15 mg/kg i.v. (Pentothal™, Abbott) and intubated. Anesthesia was maintained by allowing the dog to spontaneously breathe a mixture of isoflurane (2.5 to 3 volume %) and oxygen delivered by a Narkomed Standard anesthesia system (North American Drager, Telford, Pa.). An Abbocath-T™ i.v. catheter (18-G, Abbott) was inserted into the cephalic vein for the administration of agonists. A telemetry receiver (RA1310, DataSciences) was placed under the head of each dog and was interfaced to a computerized data acquisition system (Modular Instruments Inc.(MI2), Malvern, Pa.) which allowed for the continuous calibrated recording of arterial blood pressure which was electronically filtered to determine its mean value (MAP).
Dogs with chronic telemetry implants anesthetized as described above were placed in dorsal recumbency and a balloon catheter was inserted into the urethral orifice and advanced approximately 15 cm until the tip was well inside the bladder. The balloon was then inflated with 1 ml of room air and the catheter slowly withdrawn until resistance (corresponding to the bladder neck) was evident. The balloon was then deflated and the catheter withdrawn an additional 2 cm. The balloon was then reinflated and its catheter port connected to a Gould Statham P23Dd pressure transducer interfaced to a computerized data acquisition system (Modular Instruments, Inc., Malvern, Pa.) for the measurement of intraurethral pressure. Increasing iv doses of test agonists were administered and the maximum effect of each dose on IUP was recorded. The effect of each dose was allowed to return to baseline before the next dose was given.
From the resulting dose response curve, an ED5 value, for the dose causing a maximum increase in IUP of 5 mm Hg, could be estimated. An ED20 value for the dose causing a maximum increase in MAP of 20 mm Hg could also be estimated. A selectivity ratio of MAP ED20 vs. IUP ED5 was calculated.

For data set [6], the system named is Anesthetized Dogs. Nature of the data set: Urethral pressure profile in anesthetized dogs. The note with it: increasing iv doses, FIG. 1. Type of data set: in vivo, dog. An excerpt:
Assessment of Urethral Pressure Profile in Anesthetized Dogs
Dogs instrumented and anesthetized as decribed above were placed in left lateral recumbency and a dual pressure sensor catheter (SPC-771, Millar Instruments, Houston, Tex.) was inserted into the urethra and advanced into the bladder. The proximal pressure sensor was interfaced to a MI2 computerized data acquisition system for the measurement of lower urinary tract pressures. At a resting intravesical pressure of approximately 5 cm of H2O, urethral pressure was measured from the sensor as the catheter was withdrawn using a modified syringe pump (Model 22, Harvard Apparatus, South Natick, Mass.) at its maximal rate of 0.83 mm/sec. Measurement from the proximal sensor allowed easy reinsertion as the distal 5 cm of the catheter remains in the urethra after the total profile has been obtained. Three resting urethral pressure profiles were obtained at 5 minute intervals before dosing, then a single profile was initiated 30 sec after each increasing iv dose during the time corresponding to the maximum arterial pressure effects of that dose. The increase in arterial pressure seen after each agonist dose was allowed to return to baseline before the next dose was given.

Data set [7] relates to Anesthetized Dogs. Nature of the data set: Intraurethral pressure (IUP) in anesthetized dogs. It is filed as in vivo, dog. As to conditions: Canis lupus familiaris; iv dose causing a maximum increase in IUP of 5 mm Hg, anesthetized female dogs; read-out: Mean IUP ED5.

Counter-ions that a name gives are not always drawn. Like-named read-outs stand apart in the source and are kept apart here. A value given as a limit tells only on which side of the number the result lay.

In the case of `COc1ccc2c(c1NS(C)(=O)=O)CCCC2c1c[nH]cn1` (stereo not drawn) [Example 1, N-[5-(1H-imidazol-4-yl)-2-methoxy-5,6,7,8-tetrahydro-1-naphthalenyl]methanesulfonamide, hydrochloride], the inhibition constant (Ki) in data set [1] turned out to be 0.5 µM; in data set [2], 1.7 µM; in data set [3] it was 0.482 µM. In addition, the figures for the EC50 (in [4]; on α1B (rat spleen); at α1D (rat aorta)) were over 1000 µM, 955 µM and 5.5 µM, respectively.
`CS(=O)(=O)Nc1c(O)ccc2c1CCCC2c1c[nH]cn1` (stereo not drawn) [Example 2, N-[2-hydroxy-5-(1H-imidazol-4-yl)-5,6,7,8-tetrahydro-1-naphthalenyl]methanesulfonamide, hydrochloride]: the Ki in [1] came out at 0.0361 µM; in [2], 2.52 µM; in data set [3] it was 1.26 µM. Also, the figures for the EC50 (in data set [4]; at α1D (rat aorta)) were 0.017 µM and 1.91 µM, respectively.
As for `Cc1nc(C2CCCc3c2ccc(O)c3NS(C)(=O)=O)c[nH]1` (stereo not drawn) [Example 3, N-[2-hydroxy-5-(2-methyl-1H-imidazol-4-yl)-5,6,7,8-tetrahydro-1-naphthalenyl]methanesulfonamide, hydrochloride], the Ki was determined as 0.991 µM in data set [1] (rat submaxillary gland, [3H]-prazosin); 50.4 µM in [2] (hamster receptor expressed in mouse fibroblasts, [3H]-prazosin); 8.29 µM in [3] (rat receptor expressed in mouse fibroblasts, [3H]-prazosin). Further, the EC50 was 1.95 µM in data set [4]; 12.9 µM on α1B (rat spleen) (rat spleen); 28.2 µM at α1D (rat aorta) (rat aorta, endothelium removed).
`Cn1cncc1C1CCCc2c1ccc(O)c2NS(C)(=O)=O` (stereo not drawn) [Example 4, N-[2-hydroxy-5-(1-methyl-1H-imidazol-5-yl)-5,6,7,8-tetrahydro-1-naphthalenyl]methanesulfonamide, hydrochloride]: the figures for the Ki in data set [1], in data set [2] and in data set [3] were 24.6 µM, 31.6 µM and 31.6 µM, respectively. In addition, the figures for the EC50 (in data set [4]; on α1B (rat spleen); at α1D (rat aorta)) were 309 µM, over 1000 µM and 95.5 µM, respectively.
For the compound `CCn1cnc(C2CCCc3c2ccc(O)c3NS(C)(=O)=O)c1.Cl` (stereo not drawn) [Example 6, N-[5-(1-ethyl-1H-imidazol-4-yl)-2-hydroxy-5,6,7,8-tetrahydro-1-naphthalenyl]methanesulfonamide, hydrochloride], the melting point is 230 to 234 °C (dec.). This compound returned an inhibitory constant (Ki) in [1] of 2.08 µM. Besides, in [3], the Ki stood at 16.7 µM.
For `CCCn1cnc(C2CCCc3c2ccc(O)c3NS(C)(=O)=O)c1` (stereo not drawn) [Example 7, N-[2-hydroxy-5-(1-propyl-1H-imidazol-4-yl)-5,6,7,8-tetrahydro-1-naphthalenyl]methanesulfonamide, hydrochloride], the inhibition constant Ki in [1] came to 0.661 µM; in data set [3] it was 3.78 µM. Moreover, the EC50 (in data set [4]; on α1B (rat spleen)) was over 1000 µM each time.
With `CS(=O)(=O)Nc1cccc2c1CCCC2c1c[nH]cn1.Cl` (stereo not drawn) [Example 8, N-[5-(1H-imidazol-4-yl)-5,6,7,8-tetrahydro-1-naphthalenyl]methanesulfonamide, hydrochloride], in the data set with Anesthetized Dogs [5], the “Mean MAP ED20” value came to 102 nmol/kg. In the data set on Anesthetized Dogs [6], the urethral pressure profile result is “corresponding increases in the urethral pressure”. Further, in the data set on Anesthetized Dogs [7], the ED (5 mmHg IUP increase) amounted to 0.0255 µmol/kg.

A word on the Ki: it is a measure of affinity in units of concentration, obtained from inhibition or displacement. Broadly, the melting point is the temperature, or range, at which the solid turns liquid.
